{
  "source": "patent US12662475B2",
  "about": "“Difluorocyclohexyl derivatives as IL-17 modulators” (UCB BIOPHARMA SRL, priority 2020, dated 2026)",
  "data": [
    {"test_system": "IL-17 induced IL-6 release from human dermal fibroblasts", "assay": "Inhibition of IL-17A induced IL-6 release from dermal fibroblast cell line (HDF cell line assay)", "type": "cell-based", "details": "Incubation Time 5 h", "protocol": "Inhibition of IL-17A Induced IL-6 Release from Dermal Fibroblast Cell Line\nThe purpose of this assay is to test the neutralising ability to IL-17 proteins, in a human primary cell system.\nThe resultant IL-6 response was then measured using a homogenous time-resolved FRET kit from Cisbio. The kit utilises two monoclonal antibodies, one labelled with Eu-Cryptate (Donor) and the second with d2 or XL665 (Acceptor).\nThe ability of a compound to inhibit IL-17 induced IL-6 release from human dermal fibroblasts is measured in this assay.\nThe TrypLE was neutralised using complete medium (45 mL) and the cells were centrifuged at 300×g for 3 minutes. […] The cells were left for a minimum of three hours, at 37° C./5% CO2, to adhere to the plate.\n10 μL from the aqueous dilution plate was transferred to the reagent plate containing 30 μL of the diluted cytokines, to give a 2.5% DMSO solution. The compounds were incubated with the cytokine mixtures for 1 h or 5 h at 37° C. After the incubation, 10 μL was transferred to the assay plate, to give a […] solution, then incubated for 18-20 h at 37° C./5% CO2.", "units": {"IC50": "nM"}, "values": [
      {"smiles": "CCS(=O)(=O)CCC(C(=O)N1CC(F)(F)C(F)(F)C1)c1ccc2[nH]c([C@@H](NC(=O)c3nonc3C)C3CCC(F)(F)CC3)nc2c1F", "note": "(mixture of isomers) [Example 27, N—[(S)-(4,4-Difluorocyclohexyl){5-[3-(ethylsulfonyl)-1-(3,3,4,4-tetrafluoropyrrolidine-1-carbonyl)propyl]-4-fluoro-1H-benzimidazol-2-yl}methyl]-4-methyl-1,2,5-oxadiazole-3-carboxamide]", "IC50": 6.31},
      {"smiles": "Cc1nonc1C(=O)N[C@H](c1nc2c(F)c(C(CC(F)F)C(=O)N[C@@H](C)C(F)(F)F)ccc2[nH]1)C1CCC(F)(F)CC1", "note": "(mixture of isomers) [Example 43, N—{(S)-(4,4-Difluorocyclohexyl)[5-(3,3-difluoro-1-{[(1S)-2,2,2-trifluoro-1-methylethyl]-carbamoyl}propyl)-4-fluoro-1H-benzimidazol-2-yl]methyl}-4-methyl-1,2,5-oxadiazole-3-carboxamide]", "IC50": 50.1},
      {"smiles": "Cc1nonc1C(=O)N[C@H](c1nc2c(F)c(C(CC(F)F)C(=O)N[C@H](C)C(F)(F)F)ccc2[nH]1)C1CCC(F)(F)CC1", "note": "(mixture of isomers) [Example 46, N—{(S)-(4,4-Difluorocyclohexyl)[5-(3,3-difluoro-1-{[(1R)-2,2,2-trifluoro-1-methylethyl]-carbamoyl}propyl)-4-fluoro-1H-benzimidazol-2-yl]methyl}-4-methyl-1,2,5-oxadiazole-3-carboxamide]", "IC50": 398},
      {"smiles": "CC(C)n1ncnc1C(=O)N[C@H](c1nc2c(F)c(C(CC(F)F)C(=O)NCC(C)(F)F)ccc2[nH]1)C1CCC(F)(F)CC1", "note": "(mixture of isomers) [Example 53, N—[(S)-(4,4-Difluorocyclohexyl){5-[1-(2,2-difluoropropylcarbamoyl)-3,3-difluoropropyl]-4-fluoro-1H-benzimidazol-2-yl}methyl]-2-isopropyl-1,2,4-triazole-3-carboxamide]", "IC50": 63.1},
      {"smiles": "CC(C)n1ncnc1C(=O)N[C@H](c1nc2c(F)c(C(CC(F)(F)F)C(=O)NCC(C)(F)F)ccc2[nH]1)C1CCC(F)(F)CC1", "note": "(mixture of isomers) [Example 68, N—[(S)-(4,4-Difluorocyclohexyl){5-[1-(2,2-difluoropropylcarbamoyl)-3,3,3-trifluoro-propyl]-4-fluoro-1H-benzimidazol-2-yl}methyl]-2-isopropyl-1,2,4-triazole-3-carboxamide]", "IC50": 12.6},
      {"smiles": "CC(C)n1ncnc1C(=O)N[C@H](c1nc2c(F)c(C(CC(F)(F)F)C(=O)NCC(C)(C)F)ccc2[nH]1)C1CCC(F)(F)CC1", "note": "(mixture of isomers) [Example 71, N—[(S)-(4,4-Difluorocyclohexyl)(4-fluoro-5-{3,3,3-trifluoro-1-[(2-fluoro-2-methyl-propyl)carbamoyl]propyl}-1H-benzimidazol-2-yl)methyl]-2-isopropyl-1,2,4-triazole-3-carboxamide]", "IC50": 25.1},
      {"smiles": "CC(F)(F)CNC(=O)C(CC(F)(F)F)c1ccc2[nH]c([C@@H](NC(=O)C3(F)CC3)C3CCC(F)(F)CC3)nc2c1F", "note": "(mixture of isomers) [Example 82, N—[(S)-(4,4-Difluorocyclohexyl){5-[1-(2,2-difluoropropylcarbamoyl)-3,3,3-trifluoro-propyl]-4-fluoro-1H-benzimidazol-2-yl}methyl]-1-fluorocyclopropanecarboxamide]", "IC50": 25.1},
      {"smiles": "CC(C)n1ncnc1C(=O)N[C@H](c1nc2c(F)c([C@H](CC(C)(F)F)C(=O)NCC(C)(F)F)ccc2[nH]1)C1CCC(F)(F)CC1", "note": "(mixture of isomers) [Example 85, N—[(S)-(4,4-Difluorocyclohexyl){5-[1-(2,2-difluoropropylcarbamoyl)-3,3-difluorobutyl]-4-fluoro-1H-benzimidazol-2-yl}methyl]-2-isopropyl-1,2,4-triazole-3-carboxamide]", "IC50": 12.6},
      {"smiles": "Cc1nonc1C(=O)N[C@H](c1nc2c(F)c(C(CC(F)(F)F)C(=O)N[C@@H](C)C(F)(F)F)ccc2[nH]1)C1CCC(F)(F)CC1", "note": "(mixture of isomers) [Example 15, N—{(S)-(4,4-Difluorocyclohexyl)[4-fluoro-5-(3,3,3-trifluoro-1-{[(1S)-2,2,2-trifluoro-1-methylethyl]carbamoyl}propyl)-1H-benzimidazol-2-yl]methyl}-4-methyl-1,2,5-oxadiazole-3-carboxamide]", "IC50": 20},
      {"smiles": "Cc1nonc1C(=O)N[C@H](c1nc2c(F)c(C(CC(F)(F)F)C(=O)NCC(F)(F)F)ccc2[nH]1)C1CCC(F)(F)CC1", "note": "(mixture of isomers) [Example 33, N—[(S)-(4,4-Difluorocyclohexyl){4-fluoro-5-[3,3,3-trifluoro-1-(2,2,2-trifluoroethyl-carbamoyl)propyl]-1H-benzimidazol-2-yl}methyl]-4-methyl-1,2,5-oxadiazole-3-carboxamide]", "IC50": 3.98},
      {"smiles": "Cc1nonc1C(=O)N[C@H](c1nc2c(F)c(C(CC(F)(F)F)C(=O)NCC(F)F)ccc2[nH]1)C1CCC(F)(F)CC1", "note": "(mixture of isomers) [Example 36, N—[(S)-(4,4-Difluorocyclohexyl){5-[1-(2,2-difluoroethylcarbamoyl)-3,3,3-trifluoro-propyl]-4-fluoro-1H-benzimidazol-2-yl}methyl]-4-methyl-1,2,5-oxadiazole-3-carboxamide]", "IC50": 31.6},
      {"smiles": "Cc1nonc1C(=O)N[C@H](c1nc2c(F)c(C(CC(F)F)C(=O)NCC(F)(F)F)ccc2[nH]1)C1CCC(F)(F)CC1", "note": "(mixture of isomers) [Example 40, N—[(S)-(4,4-Difluorocyclohexyl){5-[3,3-difluoro-1-(2,2,2-trifluoroethylcarbamoyl)-propyl]-4-fluoro-1H-benzimidazol-2-yl}methyl]-4-methyl-1,2,5-oxadiazole-3-carboxamide]", "IC50": 7.94},
      {"smiles": "O=C(N[C@H](c1nc2c(F)c(C(CC(F)F)C(=O)NCC(F)(F)F)ccc2[nH]1)C1CCC(F)(F)CC1)c1ccccc1F", "note": "(mixture of isomers) [Example 49, N—[(S)-(4,4-Difluorocyclohexyl){5-[3,3-difluoro-1-(2,2,2-trifluoroethylcarbamoyl)-propyl]-4-fluoro-1H-benzimidazol-2-yl}methyl]-2-fluorobenzamide]", "IC50": 31.6},
      {"smiles": "CC(C)(F)CNC(=O)C(CC(F)(F)F)c1ccc2[nH]c([C@@H](NC(=O)c3nonc3C3CC3)C3CCC(F)(F)CC3)nc2c1F", "note": "(mixture of isomers) [Example 62, 4-Cyclopropyl-N—[(S)-(4,4-difluorocyclohexyl)(4-fluoro-5-{3,3,3-trifluoro-1-[(2-fluoro-2-methylpropyl)carbamoyl]propyl}-1H-benzimidazol-2-yl)methyl]-1,2,5-oxadiazole-3-carboxamide]", "IC50": 5.01},
      {"smiles": "Cc1nonc1C(=O)N[C@H](c1nc2c(F)c([C@H](CC(F)(F)F)C(=O)N[C@@H](C(=O)N(C)C)C(C)C)ccc2[nH]1)C1CCC(F)(F)CC1", "note": "(single isomer, unassigned) [Example 11]", "IC50": 3.98},
      {"smiles": "Cc1nonc1C(=O)N[C@H](c1nc2c(F)c([C@@H](CC(F)(F)F)C(=O)N[C@@H](C(=O)N(C)C)C(C)C)ccc2[nH]1)C1CCC(F)(F)CC1", "note": "(single isomer, unassigned) [Example 12]", "IC50": 126},
      {"smiles": "Cc1nonc1C(=O)N[C@H](c1nc2c(F)c([C@H](CC(F)(F)F)C(=O)N[C@@H](C)C(F)(F)F)ccc2[nH]1)C1CCC(F)(F)CC1", "note": "(single isomer, unassigned) [Example 25]", "IC50": 7.94},
      {"smiles": "Cc1nonc1C(=O)N[C@H](c1nc2c(F)c([C@@H](CC(F)(F)F)C(=O)N[C@@H](C)C(F)(F)F)ccc2[nH]1)C1CCC(F)(F)CC1", "note": "(single isomer, unassigned) [Example 26]", "IC50": 126},
      {"smiles": "CCS(=O)(=O)CC[C@H](C(=O)N1CC(F)(F)C(F)(F)C1)c1ccc2[nH]c([C@@H](NC(=O)c3nonc3C)C3CCC(F)(F)CC3)nc2c1F", "note": "(single isomer, unassigned) [Example 28]", "IC50": 3.16},
      {"smiles": "CCS(=O)(=O)CC[C@@H](C(=O)N1CC(F)(F)C(F)(F)C1)c1ccc2[nH]c([C@@H](NC(=O)c3nonc3C)C3CCC(F)(F)CC3)nc2c1F", "note": "(single isomer, unassigned) [Example 29]", "IC50": 126},
      {"smiles": "Cc1nonc1C(=O)N[C@H](c1nc2c(F)c([C@H](CC(F)(F)F)C(=O)NCC(F)(F)F)ccc2[nH]1)C1CCC(F)(F)CC1", "note": "(single isomer, unassigned) [Example 34]", "IC50": 2.51},
      {"smiles": "Cc1nonc1C(=O)N[C@H](c1nc2c(F)c([C@@H](CC(F)(F)F)C(=O)NCC(F)(F)F)ccc2[nH]1)C1CCC(F)(F)CC1", "note": "(single isomer, unassigned) [Example 35]", "IC50": 631},
      {"smiles": "Cc1nonc1C(=O)N[C@H](c1nc2c(F)c([C@H](CC(F)(F)F)C(=O)NCC(F)F)ccc2[nH]1)C1CCC(F)(F)CC1", "note": "(single isomer, unassigned) [Example 37]", "IC50": 15.8},
      {"smiles": "Cc1nonc1C(=O)N[C@H](c1nc2c(F)c([C@@H](CC(F)(F)F)C(=O)NCC(F)F)ccc2[nH]1)C1CCC(F)(F)CC1", "note": "(single isomer, unassigned) [Example 38]", "IC50": 100},
      {"smiles": "Cc1nonc1C(=O)N[C@H](c1nc2c(F)c([C@H](CC(F)F)C(=O)NCC(F)(F)F)ccc2[nH]1)C1CCC(F)(F)CC1", "note": "(single isomer, unassigned) [Example 41]", "IC50": 5.01},
      {"smiles": "Cc1nonc1C(=O)N[C@H](c1nc2c(F)c([C@@H](CC(F)F)C(=O)NCC(F)(F)F)ccc2[nH]1)C1CCC(F)(F)CC1", "note": "(single isomer, unassigned) [Example 42]", "IC50": 126},
      {"smiles": "Cc1nonc1C(=O)N[C@H](c1nc2c(F)c([C@H](CC(F)F)C(=O)N[C@@H](C)C(F)(F)F)ccc2[nH]1)C1CCC(F)(F)CC1", "note": "(single isomer, unassigned) [Example 44]", "IC50": 10}
    ]}
  ]
}
